Assay results reported in patent US6645283B1, “Anthrapyridone compounds, water-based magenta ink composition, and method of ink-jet printing” (Nippon Kayaku Kabushiki Kaisha, priority 1998, dated 2003).

Experiments:
Assay type in all cases: physicochemical
[1] = Light fastness test of recorded image, carbon arc fade meter, 20 hours; conditions: carbon arc 20 hours; for Light fastness Grade: JIS L-0841 blue scale
Source text: (§1) Each water-based ink composition was produced by preparing the liquids which contain the anthrapyridone compounds (dyestuff components) of No.2, No.5 and No.15 respectively and have a composition of Table 2 as shown below, and then filtering through 0.45 μm membrane filter.
(§2) By using an ink-jet printer (Trade name: PICTY80L, made by NEC KK), ink-jet recordings were done on four types of recording sheets: a plain paper (Printer paper A4, TLB5A4S made by Canon KK), a special paper A (Color BJ Paper LC101 made by Canon KK), a special paper B (Coated paper for color image jetting, STX73A4 made by Sharp KK), and a glossy film (Special glossy film, MJA4SP6 made by Seiko-Epson KK).
A carbon arc fade meter (by Suga Testing Machine Co.) was used to irradiate carbon arc on the recorded images for 20 hours. Grade was judged according to JIS L-0841 blue scale. A color difference (ΔE) between before and after the test was measured by the above color determination system.

[2] = Solubility in water of the dyestuff
Experimental: (5) The wet cake obtained in above (4)was added in 1500 parts of methanol, followed by heating at 60-65° C. and stirring for 1 hr. The crystal was filtered to separate, washed with methanol and dried to obtain 42.0 parts of the compound of No.2 as a red crystal. λmax:523 nm (in water, the ammonium salt); solubility in water:100 g/l or above.
(2) The wet cake obtained in this (1) was desalted as in Example 1(5) to obtain 35.0 parts of the compound of No.5 as a red crystal. λmax:522 nm (in water, the ammonium salt); solubility in water:100 g/l or more.
(2) To the reaction solution of the above (1) was added 4.7 parts of the compound of Formula (5) (R1=CH3, R2=H) obtained as in Example 1 (1) and 1(2), followed by raising the temperature and dropping 10% aqueous sodium hydroxide at 60-65° C. to maintain the pH at 4-5 for 1 hr for the reaction. The solution was maintained for 1 hr at pH 6.5-7.0, and filtered to remove a little insoluble matter, to obtain the reaction solution containing the compound of No.15. The reaction solution was diluted with water to obtain 250 parts of the diluted solution, followed by heating at 60-65° C., adding 50 parts of sodium chloride and stirring for about 30 min to deposit crystal. After stirring for 1 hr, the crystal was filtered to separate, washed with 100 parts of 10% aqueous sodium chloride, and dried to obtain 8.9 parts of the sodium salt of the compound of No.15 as a red crystal. λmax:527 nm (in water); solubility in water:100 g/l or more.
The anthrapyridone dyestuff of the present invention is suitable for an ink-jet magenta dyestuff because it has values in hue and brightness close to those of the JNC standard magenta. The dyestuff of the present invention also, when used on a special paper, can provide good light fastness and water fastness. […] Further, the dyestuffs of No.2, No.5 and No.15 obtained in Example 1 to 3 have their water-solubilities of 100 g/l or more under an alkaline condition (pH 8-9) and therefore enable to prepare stable inks for ink-jetting. […]

[3] = Water fastness test of recorded paper, dipped into water, stirred for 2 min, air-dried; conditions: water 2 min; for Water fastness Grade: JIS color fading grey scale
Source text: as §1, §2
A recorded paper was dipped into water in a beaker, stirred for 2 min, and air-dried. The change between before and after the test was judged by the JIS color fading grey scale. Alternatively, a color difference (ΔE) between before and after the test was measured by the above color determination system.

[4] = Plain Paper (PP), color difference before/after

SMILES | Light fastness (ΔE) ([1]; Glossy Film (GF)) | Light fastness Grade ([1]; Glossy Film (GF)) | Light fastness Grade ([1]; Plain Paper (PP)) | Light fastness (ΔE) [1, 4] | Light fastness (ΔE) ([1]; Special Paper A (SA)) | Light fastness Grade ([1]; Special Paper A (SA)) | Light fastness (ΔE) ([1]; Special Paper B (SB)) | Light fastness Grade ([1]; Special Paper B (SB)) | solubility in water [2] [g/L] | Water fastness (ΔE) ([3]; Glossy Film (GF)) | Water fastness Grade ([3]; Glossy Film (GF)) | Water fastness Grade ([3]; Plain Paper (PP)) | Water fastness (ΔE) [3, 4] | Water fastness (ΔE) ([3]; Special Paper A (SA)) | Water fastness Grade ([3]; Special Paper A (SA)) | Water fastness (ΔE) ([3]; Special Paper B (SB)) | Water fastness Grade ([3]; Special Paper B (SB))
Cn1c(=O)cc2c3c(c(Nc4cc(Nc5nc(Cl)nc(Nc6cc7c(S(=O)(=O)O)cc(S(=O)(=O)O)cc7cc6S(=O)(=O)O)n5)ccc4S(=O)(=O)O)ccc31)C(=O)c1ccccc1-2 [No.15] | (2.8) | 4 | 3-4 | (8.0) | (21.3) | 2 | (8.9) | 3-4 | ≥ 100 | (3.8) | 4 | 1 | (58.6) | (1.3) | 4 | (19.3) | 2
Cn1c(=O)cc2c3c(c(Nc4cc(Nc5nc(NCC(=O)O)nc(Nc6cc(C(=O)O)cc(C(=O)O)c6)n5)ccc4S(=O)(=O)O)ccc31)C(=O)c1ccccc1-2 [No.5] | (10.6) | 3-4 | 3-4 | (8.7) | (14.1) | 3 | (12.4) | 3 | ≥ 100 | (4.6) | 4 | 3-4 | (6.3) | (2.4) | 4 | (4.5) | 4
Cn1c(=O)cc2c3c(c(Nc4cc(Nc5nc(NCCS(=O)(=O)O)nc(Nc6cc(C(=O)O)cc(C(=O)O)c6)n5)ccc4S(=O)(=O)O)ccc31)C(=O)c1ccccc1-2 [No.2] | (3.6) | 4 | 4 | (3.7) | (11.1) | 3 | (7.2) | 3-4 | ≥ 100 | (3.5) | 4 | 3-4 | (8.6) | (2.2) | 4 | (5.5) | 3-4
